From patent US10556875B2, “Bis-diazeniumdiolate compounds as anti-cancer agents” (ARIZONA BOARD OF REGENTS ON BEHALF OF ARIZONA STATE …, priority 2017, dated 2020)
Read-outs that look alike come from different tables or passages of the source.

Tests used:
Type in all cases: cell-based, human
[1] = system: breast cancer cell MDA-MB-231; assay: In vitro cellular proliferation assay (MTT/MTS)
[2] = system: BT474 breast cancer cells; assay: In vitro cellular proliferation assay (MTT/MTS)
Procedure: (§1) In Vitro Cellular Proliferation Assay: BT474 breast cancer cells (ATCC® HTB-20, overexpression of HER2), A549 lung cancer cells, leukemia cell CCRF-CEM (ATCC# CCL-119), and leukemia Jurkat cell were cultured at 37° C. in a 5% CO2 atmosphere and grown in Gibco® RPMI 1640 medium supplemented with 10% fetal bovine serum (FBS) and 1% antibiotic-[…] mix antibiotic supplement before use.
(§2) Exponentially growing cells were harvested and plated in 96-well plates at a concentration of 1×10^4 cells/well. After incubation at 37° C. for 24 h, the cells were treated with analogues of JS-K at different concentrations for an additional 24, 48 or 72 h. Then 20 μL of MTT (5 mg/mL) or MTS was added to each well and the plates were incubated at 37° C. for 4 h. The supernatant was discarded for MTT assay, and 100 μL of DMSO was added to each well. For the MTS assay, this step is not necessary. The absorbance was recorded at 490 nm after 15 min. Inhibition of cell growth was obtained by the following formula: Inhibition of cell growth (%)=(ODnegative control−ODtreatment)×100%/(ODnegative control−ODbackground). Data are reported as the mean of three independent experiments, each run in quintuplicate.

[3] = system: leukemia cell CCRF-CEM; assay: In vitro cellular proliferation assay (MTT/MTS)
Procedure: as §1, §2

[4] = system: leukemia Jurkat E6-1 cells; assay: In vitro cellular proliferation assay (MTT/MTS)
Procedure: as §1, §2

[5] = system: A549 lung cancer cells; assay: In vitro cellular proliferation assay (MTT/MTS)
Procedure: as §1, §2

[6] = system: BT474, MDA-MB-231, A549, CCRF-CEM and Jurkat cancer cells; assay: In vitro cellular proliferation assay, comparison across the tested cancer cell panel
Procedure: as §1, §2

[7] = Homo sapiens, MDA-MB-231, read-out: Half maximal inhibitory concentration (IC50)
[8] = Homo sapiens, BT-474, read-out: Half maximal inhibitory concentration (IC50)
[9] = Homo sapiens, CCRF-CEM, read-out: Half maximal inhibitory concentration (IC50)
[10] = Homo sapiens, Jurkat E6.1, read-out: Half maximal inhibitory concentration (IC50)
[11] = Homo sapiens, A549, read-out: Half maximal inhibitory concentration (IC50)

| Structure (SMILES) | IC50 [1, 7] [µM] | IC50 [2, 8] [µM] | IC50 [3, 9] [nM] | IC50 [4, 10] [µM] | IC50 [5, 11] [µM] | specific activity to human leukemia cells ([6]; among the compounds of the series) | selectivity to leukemia cells versus breast cancer and lung cancer cells ([6]; compared with JS-K) | IC50 fold higher (less cell killing potency) than for JS-K ([6]; other four cancer cells (other than CEM), relative to JS-K) | IC50 ([3]; Homo sapiens, CCRF-CEM, read-out: IC50 against leukemia CEM cells) [nM] | IC50 ([1]; MDA-MB-231 cells, read-out: Half maximal inhibitory concentration (IC50)) [µM] | inhibitory effect on cellular proliferation ([6]; all tested cancer cells: BT474, MDA-MB-231, A549, CCRF-CEM, Jurkat) | IC50 ([2]; BT474 cells, read-out: Half maximal inhibitory concentration (IC50)) [µM] | IC50 ([3]; leukemia CEM cells, read-out: IC50 against leukemia CEM cells) [nM] | IC50 ([4]; Jurkat E6-1 cells, read-out: Half maximal inhibitory concentration (IC50)) [µM] | IC50 ([5]; A549 cells, read-out: Half maximal inhibitory concentration (IC50)) [µM] |
| --- | --- | --- | --- | --- | --- | --- | --- | --- | --- | --- | --- | --- | --- | --- | --- |
| O=[N+]([O-])c1ccc(O/N=[N+](\[O-])N2CCN(CCN3CCN(/[N+]([O-])=N/Oc4ccc([N+](=O)[O-])cc4[N+](=O)[O-])CC3)CC2)c([N+](=O)[O-])c1 [Compound 1, (1Z,1′Z)-1,1′-(ethane-1,2-diylbis(piperazine-4,1-diyl))bis(2-(2,4-dinitrophenoxy)diazene 1-oxide)] | 17.6 ± 0.08 | 10.7 ± 0.97 | 2640 ± 370 | 3.71 ± 0.04 | 17.1 ± 1.02 |  |  |  |  |  |  |  |  |  |  |
| O=[N+]([O-])c1ccc(O/N=[N+](\[O-])N2CCN(CC3CCC(CN4CCN(/[N+]([O-])=N/Oc5ccc([N+](=O)[O-])cc5[N+](=O)[O-])CC4)CC3)CC2)c([N+](=O)[O-])c1 (stereo not drawn) [Compound 4, (1Z,1′Z)-1,1′-((cyclohexane-1,4-diylbis(methylene))bis(piperazine-4,1-diyl))bis(2-(2,4-dinitrophenoxy)diazene 1-oxide)] | 16.4 ± 0.53 | 6.01 ± 0.21 | 2540 ± 140 | 3.01 ± 0.22 | 18.5 ± 0.15 |  |  |  |  |  |  |  |  |  |  |
| O=[N+]([O-])c1ccc(O/N=[N+](\[O-])N2CCN(CCCN3CCN(/[N+]([O-])=N/Oc4ccc([N+](=O)[O-])cc4[N+](=O)[O-])CC3)CC2)c([N+](=O)[O-])c1 [Compound 2, (1Z,1′Z)-1,1′-(propane-1,3-diylbis(piperazine-4,1-diyl))bis(2-(2,4-dinitrophenoxy)diazene 1-oxide)] | > 20 | 10.8 ± 0.08 | 3730 ± 150 | 4.06 ± 0.18 | 18.8 ± 0.21 |  |  |  |  |  |  |  |  |  |  |
| O=[N+]([O-])c1ccc(O/N=[N+](\[O-])N2CCC(CN3CCN(/N=[N+](\[O-])Oc4ccc([N+](=O)[O-])cc4[N+](=O)[O-])CC3)CC2)c([N+](=O)[O-])c1 [Compound 3, (E)-1-(2,4-dinitrophenoxy)-2-(4-((1-((Z)-2-(2,4-dinitrophenoxy)-1-oxidodiazen-1-yl)piperidin-4-yl)methyl)piperazin-1-yl)diazene 1-oxide] | 17.9 ± 1.01 | 7.06 ± 1.03 | 460 ± 20 | 1.94 ± 0.08 | 11.3 ± 1.61 | highest specific activity | higher selectivity than JS-K | 1.9-5.4 fold | 460 |  |  |  |  |  |  |
| CCOC(=O)N1CCN(/[N+]([O-])=N/Oc2ccc([N+](=O)[O-])cc2[N+](=O)[O-])CC1 [JS-K, O^2-(2,4-dinitrophenyl) 1-[(4-ethoxycarbonyl)piperazin-1-yl]diazen-1-ium-1,2-diolate, reference compound] |  |  |  |  |  |  |  |  |  | 7.93 ± 0.47 | high inhibitory effect | 3.66 ± 0.41 | 290 | 0.52 ± 0.02 | 2.11 ± 0.15 |
